# Results as given in US8080529B2, “Macrolides with anti-inflammatory activity” (Glaxo Group Limited, priority 2005, dated 2011).
# Like-named read-outs stand apart in the source and are kept apart here.
# Columns and labels:
# A549 = assay: Cytotoxicity assay (MTT), A549 cell line; assay type: cell-based; conditions: 24 h
# How it was run: (§1)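 Viability was read as MTT-formazan absorbance at 490 nm after 0.5-2 h with reagent. This followed 24 h compound exposure (50 μM, 12.5 μM) at 37° C in RPM medium. Result expressed as OD490 treated over untreated cells ×100.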
# IL-8 = assay: Inhibition of IL-8 production by stimulated human peripheral blood leukocytes in vitro; assay type: cell-based; conditions: Homo sapiens, Leukocyte, read-out: Percentage of inhibition of IL-8 production
# How it was run: (§2)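 Cytokines in supernatants measured by sandwich ELISA after overnight stimulation (2 μg/mL LPS, 1 μg/mL PMA or 120 μg/mL zymosan) of healthy-donor leukocytes pretreated 2 h with 10 or 50 μM compound. Percent inhibition calculated relative to stimulated cells lacking compound.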
# TNF-α [1] = assay: Inhibition of TNF-α production by stimulated human peripheral blood leukocytes in vitro; assay type: cell-based; conditions: Homo sapiens, Leukocyte, read-out: Percentage of inhibition of TNF-α production
# How it was run: as §2
# IL-1α = assay: Inhibition of IL-1 production by stimulated human peripheral blood leukocytes in vitro; assay type: cell-based; conditions: Homo sapiens, Leukocyte, read-out: Percentage of inhibition of IL-1α production
# IL-6 [2] = assay: Inhibition of IL-6 production by stimulated human peripheral blood leukocytes in vitro; assay type: cell-based; conditions: Homo sapiens, Leukocyte, read-out: Percentage of inhibition of IL-6 production
# How it was run: as §2
# Hep G2 = assay: Cytotoxicity assay (MTT), Hep G2 cell line; assay type: cell-based; conditions: 24 h
# How it was run: as §1
# granulocytes = assay type: in vitro ADME; conditions: human, 180 min, 10 μM
# Procedure: Granulocytes were obtained from heparinized whole blood using density gradiant centrifugation. Erythrocytes were sedimented on 3% dextran T-500 (Amersham Pharmacia Biotech AB, Uppsala, Sweden). Leukocytes were centrifuged on Ficoll (Amersham Pharmacia Biotech AB, Uppsala, Sweden) for 35 min at 600 g at 20° C. The pellet of granulocytes was cleared from remaining erythrocytes by a brief hypotonic lysis.
# 7.5×10^6 granulocytes, isolated as described above, were suspended in 3 mL of RPMI 1640 (Institute of Immunology, Croatia) containing 10 μM of tested macrolide. Samples were incubated at 37° C. for 180 min. Following incubation, the samples were centrifuged through the layer of Poly(dimethylsiloxane-co-diphenylsiloxane), dihydroxy terminated-silicone oil (Aldrich Chemical Company, Milwaukee, USA). The pellet was resuspended in 0.5% Triton X-100 (Sigma, St. Louis, USA) in deionized water (MilliQ, Millipore Corporation, Bedford, USA). The suspension was sonicated, proteins were precipitated with acetonitrile, and the concentration of macrolide in the supernatants was determined by liquid chromatography-mass spectrometry (LC-MS).
# Intracellular concentrations of the test compounds were calculated from the mean cell number recovered after centrifuging through silicone oil. According to the literature, about 1 million neutrophils is considered to have a volume of 0.24 μL (Vazifeh et al., Antimicrob Agents Chemo. 1997; 41: 2099-2107). To estimate the extent of macrolide accumulation, the intracellular to extracellular concentration ratio (I/E) was calculated, where E (due to a large volume of incubation medium) was taken as constant (10 μM). Results are expressed relative to azithromycin according to the following equation: % of azithromycin uptake =(I/E of a substance/I/E of azithromycin)×100. I/E values obtained for azithromycin were 164±10.
# IL-6 [3] = assay: Lung neutrophilia induced by bacterial lipopolysaccharide in male BALB/cJ mice: IL-6 in BALF; assay type: in vivo; conditions: 2.5 mg i.p.; 24 hours after LPS
# Procedure: (§3) Male BALB/cJ mice (Iffa Credo, France), with average weight 30 g were randomly grouped (n=7 in testing group, 8 in positive control, 7 in negative control). Mice were administered intraperitoneally (i.p.) a single dose of 5 or 2.5 mg of test compound. Two hours after administration, 2 μg of bacterial lipopolysaccharide (LPS), dissolved in PBS in a volume of 60 μL, was intranasally administered to all experimental groups except the negative control group, which received the same volume (60 μL) of vehicle PBS. Animals were sacrificed approximately 24 hours after application of LPS in order to obtain bronchoalveolar lavage fluid (BALF), which was used to determine concentrations of IL-6 and TNF-α, absolute number of cells, and the percentage of neutrophils in BALF. Results are expressed as percentage of decrease of total cell number, relative number of neutrophils, and TNF-α, and IL-6 concentration in BALF of treated animals compared to positive control (LPS stimulated, but untreated animals).
# (§4) Results are expressed as percentage of decrease of total cell number, relative number of neutrophils, and TNF-alpha and IL-6 concentration in BALF of treated animals compared to positive control (LPS stimulated, but untreated animals).
# neutrophils = assay: Lung neutrophilia induced by bacterial lipopolysaccharide in male BALB/cJ mice: cells in BALF and lung tissue; assay type: in vivo; conditions: 2.5 mg i.p.; 24 hours after LPS
# Procedure: as §3, §4
# Besides accumulation of inflammatory cells in BALF, the extent and anatomic site of pulmonary inflammation induced by LPS was assessed 24 hours after PBS or LPS exposure. Accumulation of granulocytes and mononuclear cells in peribronchial (PB) and perivascular (PV) lung tissue areas and in alveolar spaces was monitored following sacrifice of the animals.
# TNF-α [4] = assay: Lung neutrophilia induced by bacterial lipopolysaccharide in male BALB/cJ mice: TNF-α in BALF; assay type: in vivo; conditions: 2.5 mg i.p.; 24 hours after LPS
# Procedure: as §3, §4
# TNF-α [5] = assay: Lipopolysaccharide induced TNF-α production in Balb/cJ mice; assay type: in vivo; conditions: Mus musculus, ip, 1.5 h; 10 mg/kg intraperitoneally, 30 min before LPS; 90 min after LPS; read-out: % inhibition of TNF-α production (plasma)
# Procedure: Male Balb/cJ mice (Iffa Credo, France) weighing 25-33 g were randomly grouped (n=7 in test group, 7 in positive control group, 4 in negative control group). Test compounds, as well as vehicle [0.125% carboxymethyl-cellulose (Sigma, USA)], were administered to the mice intraperitoneally. Test compounds were administered at a dose of 10 mg/kg of body weight, in a volume of 10 mL/kg of body weight. Thirty minutes later, a sterile solution of lipopolysaccharide (LPS) (Sigma, USA) in saline was intraperitoneally administered at a concentration and volume of 25 μg/0.2 mL/mouse to each animal, except those in negative control. Ninety minutes following administration, all animals were sacrificed by puncturing a. carotis communis. The plasma concentration of TNF-α was determined by sandwich ELISA, using capture and detection antibodies (R&D, USA) according to manufacturer's recommendations. Results are presented in the following table as percent of inhibition of TNF-α production in comparison to the positive control (stimulated, but untreated animals).
compound,measurement,setting,value
"CC[C@H]1OC(=O)[C@H](C)[C@@H](O[C@H]2C[C@@](C)(OC)[C@@H](OCCCN)[C@H](C)O2)[C@H](C)[C@@H](O[C@@H]2O[C@H](C)C[C@H](N(C)C)[C@H]2O)[C@](C)(O)C[C@@H](C)CN(C)[C@H](C)[C@H]2OC(=O)O[C@@]21C [Example 51C, 11,12-Carbonate-11,12-dideoxy-4″-O-(3-aminopropyl)-azithromycin]",Percentage of inhibition of cell growth,A549; 12.5 μM,0%
same,Percentage of inhibition of cell growth,A549; 50 μM,0%
same,inhibition at 10 µM,IL-8; LPS-stimulated PBL,0%
same,inhibition at 10 µM,IL-8; PMA-stimulated PBL,12%
same,inhibition at 10 µM,IL-8; zymosan-stimulated PBL,26%
same,inhibition at 50 µM,IL-8; LPS-stimulated PBL,0%
same,inhibition at 50 µM,IL-8; PMA-stimulated PBL,0%
same,inhibition at 50 µM,IL-8; zymosan-stimulated PBL,0%
same,inhibition at 10 µM,TNF-α [1]; LPS-stimulated PBL,5%
same,inhibition at 10 µM,TNF-α [1]; PMA-stimulated PBL,18%
same,inhibition at 10 µM,TNF-α [1]; zymosan-stimulated PBL,38%
same,inhibition at 50 µM,TNF-α [1]; LPS-stimulated PBL,0%
same,inhibition at 50 µM,TNF-α [1]; PMA-stimulated PBL,4%
same,inhibition at 50 µM,TNF-α [1]; zymosan-stimulated PBL,0%
same,inhibition at 10 µM,IL-1α; LPS-stimulated PBL,2%
same,inhibition at 10 µM,IL-1α; PMA-stimulated PBL,0%
same,inhibition at 10 µM,IL-1α; zymosan-stimulated PBL,62%
same,inhibition at 50 µM,IL-1α; LPS-stimulated PBL,0%
same,inhibition at 50 µM,IL-1α; PMA-stimulated PBL,0%
same,inhibition at 50 µM,IL-1α; zymosan-stimulated PBL,0%
same,inhibition at 10 µM,IL-6 [2]; LPS-stimulated PBL,4%
same,inhibition at 10 µM,IL-6 [2]; PMA-stimulated PBL,27%
same,inhibition at 10 µM,IL-6 [2]; zymosan-stimulated PBL,42%
same,inhibition at 50 µM,IL-6 [2]; LPS-stimulated PBL,0%
same,inhibition at 50 µM,IL-6 [2]; PMA-stimulated PBL,6%
same,inhibition at 50 µM,IL-6 [2]; zymosan-stimulated PBL,0%
same,Percentage of inhibition of cell growth,Hep G2; 12.5 μM,15%
same,Percentage of inhibition of cell growth,Hep G2; 50 μM,7%
same,Uptake (% azithromycin),granulocytes,122 % azithromycin
"CC[C@H]1OC(=O)[C@H](C)[C@@H](O[C@H]2C[C@@](C)(OC)C(OC(=O)CCN(CC)CC)[C@H](C)O2)[C@H](C)[C@@H](O[C@@H]2O[C@H](C)C[C@H](N(C)C(C)=O)[C@H]2O)[C@](C)(OC)C[C@@H](C)C(=O)N[C@H](C)[C@@H](O)[C@]1(C)O (stereo partly shown) [Example 62, 3′-N-methyl-3′-N-acetyl-4″-O-(3-diethylaminopropionyl)-6-O-methyl-9a-aza-9a-homoerythromycin A]",Percentage of decrease of IL-6 concentration in BALF,IL-6 [3],22%
same,% decrease of neutrophils in BALF,neutrophils,13%
same,% decrease of total cell no. in BALF,neutrophils,47%
same,Percentage of decrease of TNF-α concentration in BALF,TNF-α [4],62%
same,inhibition in vivo at 10 mg/kg,TNF-α [5],59%
